Test results taken from PubChem BioAssay AID2060889 (Molecular Pharmacology Branch, DTP, NCI, 2025).

Tested on: LG0567-F671-PDC complex spheroids viability
Test: Anticancer human tumor LG0567-F671-PDC patient-derived lung adenocarcinoma cell line growth inhibition [RAS]
Settings: for IC50: curve of first compound; for viability, T/C: stronger effect = lower value
From the text: RAS pathway inhibitors in Combinations in Complex Spheroids
A high-throughput screen of multi-cell type tumor spheroids was designed to identify active combinations of RAS pathway inhibitors and targeted small molecules. Complex spheroids include a stromal component modeled by human endothelial cells (HUVEC) and fibroblasts modeled by human mesenchymal stem cells (MSCs). The concentration ranges selected for each drug and investigational agent were based upon clinically achievable concentrations if the clinical Cmax of the agent was known.
Compounds. The drugs and investigational agents: abemaciclib (NSC768073), cobimetinib (NSC768068), divarasib (GDC6063, NSC841802), docetaxel (NSC628503), GDC-1971 (RLY-1971, NSC841576), gemcitabine (NSC613327), inavolisib (NSC800729), ipatasertib (NSC767898), KB-0742 (NSC834161), MRTX-1133 (NSC836407), osimertinib (NSC779217), RMC-4630 (NSC839698), RMC-6236 (NSC851965), RMC-6291 (NSC852671), Ro-3306 (NSC812927), sapanisertib (NSC764658), SN-38 (NSC673596), staurosporine (NSC755774), SY5609 (NSC837396), and tovorafenib (DAY101, NSC766906), were obtained from the National Cancer Institute (NCI) Developmental Therapeutics Program Chemical Repository. The FDA-approved anticancer drug set is available from the NCI Developmental Therapeutics Program. […] The stock solutions were prepared in dimethyl sulfoxide (DMSO, Sigma-Aldrich, St. Louis, MO, cat. D2650) at 800-fold the tested concentration and stored at -70 degrees C prior to their use. All drugs and investigational agents were tested over a range starting from a high concentration at or near the clinical Cmax and decreasing in half-log increments. If the clinical Cmax for an agent had not been determined, the highest concentration tested was 10 microM.
Cell Culture. All cells were maintained in an incubator at 37 degrees C and 5% CO2 with 95% humidity. The PDC lines were cultured according to standard operating procedures established by the NCI PDMR. All PDCs were thawed and cultured in Matrigel-coated flasks prepared with a working solution of 1X Ham's F-12 nutrient mix, without supplementation (Invitrogen, Waltham, MA, cat. 11765054), 100 U/mL penicillin-streptomycin (Invitrogen, cat. 15140122), and 2.5% Matrigel (Corning Inc., Corning, NY, cat. 354248) for the first three passages. The 362531-283-R-J2-PDC and 782815-120-R-J1-PDC lines were cultured in 6C/Colon 1B media, which includes advanced DMEM/F-12 (Thermo Fisher Scientific, cat. 12634028), 10 mM HEPES (Thermo Fisher Scientific, cat. 15630080), 1X GlutaMAX supplement (Thermo Fisher Scientific, cat. 35050061), 0.1 mg/mL primocin (InvivoGen, San Diego, CA, cat. ant-pm-2), 10% defined fetal bovine serum, heat inactivated (HyClone Laboratories Inc., Logan, UT, cat. SH30070.03HI), 50% L-WRN conditioned media (ATCC, cat. CRL-3276), 1.25 mM N-Acetyl-L-cysteine (Sigma-Aldrich, cat. A9165), 10 mM nicotinamide (Sigma-Aldrich, cat. N0636), 1X B-27 supplement (Thermo Fisher Scientific, cat. 17504044), 1X N-2 supplement (Thermo Fisher Scientific, cat. 17502048), 50 ng/mL human EGF (Thermo Fisher Scientific, cat. PHG0311), and 10 microM Y-27632 dihydrochloride (Tocris Bioscience, cat. 1254). The K12877-001-R-J1-PDC line was cultured in 6I media, which includes all 6C/Colon 1B media plus 10 ng/mL human FGF-10 (PeproTech, cat. 100-26), 1 ng/mL human FGF-2 (PeproTech, cat. 100-18B), 1 µM prostaglandin E2 (Tocris Bioscience, cat. 2296), […] hydrocortisone (Sigma-Aldrich, cat. H4001), and […] bovine insulin (Sigma-Aldrich, cat. I6634). The K86415-001-R-J1-PDC line was cultured in 6D media, which includes all 6C/Colon 1B media components minus the L-WRN conditioned media. The 485176-168-R4-J1-PDC was cultured in PANC media, which includes all 6C/Colon 1B media plus 100 ng/mL human FGF-10 (PeproTech, cat. 100-26), 500 nM SB-431542 (Selleckchem, cat. S1067), and 10 nM gastrin (Tocris Bioscience, cat. 3006). […]

[1] = second compound 0.0316 µM, first compound 0.0316 µM
[2] = second compound 0.0316 µM, first compound 0.1 µM
[3] = second compound 0.0316 µM, first compound 0.316 µM
[4] = second compound 0.0316 µM, first compound 1 µM
[5] = second compound 0.0316 µM, first compound 3.16 µM
[6] = second compound 0.0316 µM, first compound 10 µM
[7] = second compound 0.1 µM, first compound 0.0316 µM
[8] = second compound 0.1 µM, first compound 0.1 µM
[9] = second compound 0.1 µM, first compound 0.316 µM
[10] = second compound 0.1 µM, first compound 1 µM
[11] = second compound 0.1 µM, first compound 3.16 µM
[12] = second compound 0.1 µM, first compound 10 µM
[13] = second compound 0.316 µM, first compound 0.0316 µM
[14] = second compound 0.316 µM, first compound 0.1 µM
[15] = second compound 0.316 µM, first compound 0.316 µM
[16] = second compound 0.316 µM, first compound 1 µM
[17] = second compound 0.316 µM, first compound 3.16 µM
[18] = second compound 0.316 µM, first compound 10 µM
[19] = second compound 1 µM, first compound 0.0316 µM
[20] = second compound 1 µM, first compound 0.1 µM
[21] = second compound 1 µM, first compound 0.316 µM
[22] = second compound 1 µM, first compound 1 µM
[23] = second compound 1 µM, first compound 3.16 µM
[24] = second compound 1 µM, first compound 10 µM
[25] = second compound 3.16 µM, first compound 0.0316 µM
[26] = second compound 3.16 µM, first compound 0.1 µM
[27] = second compound 3.16 µM, first compound 0.316 µM
[28] = second compound 3.16 µM, first compound 1 µM
[29] = second compound 3.16 µM, first compound 3.16 µM
[30] = second compound 3.16 µM, first compound 10 µM
[31] = second compound 10 µM, first compound 0.0316 µM
[32] = second compound 10 µM, first compound 0.1 µM
[33] = second compound 10 µM, first compound 0.316 µM
[34] = second compound 10 µM, first compound 1 µM
[35] = second compound 10 µM, first compound 3.16 µM
[36] = second compound 10 µM, first compound 10 µM
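Further: spheroids exposed to compound for seven days before readout.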
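Wherever IC50 is given: luminescence signal used as a proxy for viable cells.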

Work on CCC(CC)c1cc(NC2CCC(N)C2)n2nccc2n1 (stereo unspecified) + C#Cc1c(F)ccc2cc(O)cc(-c3ncc4c(N5CC6CCC(C5)N6)nc(OCC56CCCN5CC(F)C6)nc4c3F)c12 yielded an IC50 (second compound 0.0316 µM) of 1900 nM, an IC50 (second compound 0.1 µM) of 1710 nM and an IC50 (second compound 0.316 µM) of 1250 nM. It also gave an IC50 (second compound 1 µM) of under 31.6 nM, an IC50 (second compound 3.16 µM) of under 31.6 nM and an IC50 (second compound 10 µM) of under 31.6 nM. It also gave a viability, T/C [1] of 102%, a viability, T/C [2] of 97.2% and a viability, T/C [3] of 111%. It also gave a viability, T/C [4] of 119%, a viability, T/C [5] of 4.67% and a viability, T/C [6] of 0.25%. It also gave a viability, T/C [7] of 78.4%, a viability, T/C [8] of 83.5% and a viability, T/C [9] of 92.2%. For the same molecule, the viability, T/C [10] was 104%, the viability, T/C [11] was 4.32% and the viability, T/C [12] was 0.47%. It also gave a viability, T/C [13] of 60.3%, a viability, T/C [14] of 57.3% and a viability, T/C [15] of 59.7%. The viability, T/C [16] was 67.8%, the viability, T/C [17] was 3.78% and the viability, T/C [18] was 0.39%. The viability, T/C [19] was 32.4%, the viability, T/C [20] was 37% and the viability, T/C [21] was 43.4%. It also gave a viability, T/C [22] of 38.2%, a viability, T/C [23] of 3.47% and a viability, T/C [24] of 0.38%. It also gave a viability, T/C [25] of 18.2%, a viability, T/C [26] of 17.8% and a viability, T/C [27] of 20.2%. For the same molecule, the viability, T/C [28] was 17.1%, the viability, T/C [29] was 2.86% and the viability, T/C [30] was 0.37%. The viability, T/C [31] was 10.3%, the viability, T/C [32] was 11.3% and the viability, T/C [33] was 10.3%. The viability, T/C [34] was 9.32%, the viability, T/C [35] was 1.25% and the viability, T/C [36] was 0.15%.

Cc1nc(N2CCC3(CC2)COC(C)C3N)c(CO)nc1Sc1ccnc(N)c1Cl (stereo unspecified) + C#Cc1c(F)ccc2cc(O)cc(-c3ncc4c(N5CC6CCC(C5)N6)nc(OCC56CCCN5CC(F)C6)nc4c3F)c12 showed an IC50 (second compound 0.0316 µM) of 65.8 nM, an IC50 (second compound 0.1 µM) of under 31.6 nM and an IC50 (second compound 0.316 µM) of under 31.6 nM. The IC50 (second compound 1 µM) was under 31.6 nM, the IC50 (second compound 3.16 µM) was under 31.6 nM and the IC50 (second compound 10 µM) was under 31.6 nM. It also gave a viability, T/C [1] of 63.3%, a viability, T/C [2] of 43.5% and a viability, T/C [3] of 26.2%. It also gave a viability, T/C [4] of 19.9%, a viability, T/C [5] of 15.2% and a viability, T/C [6] of 13.1%. For the same molecule, the viability, T/C [7] was 46.1%, the viability, T/C [8] was 31.3% and the viability, T/C [9] was 21.6%. The viability, T/C [10] was 15.5%, the viability, T/C [11] was 12.7% and the viability, T/C [12] was 9.84%. It also gave a viability, T/C [13] of 35.3%, a viability, T/C [14] of 20.9% and a viability, T/C [15] of 18.1%. The viability, T/C [16] was 10.4%, the viability, T/C [17] was 8.05% and the viability, T/C [18] was 7.7%. The viability, T/C [19] was 21%, the viability, T/C [20] was 16.2% and the viability, T/C [21] was 10.6%. For the same molecule, the viability, T/C [22] was 10.3%, the viability, T/C [23] was 4.69% and the viability, T/C [24] was 3.85%. The viability, T/C [25] was 12.1%, the viability, T/C [26] was 8.68% and the viability, T/C [27] was 5.69%. For the same molecule, the viability, T/C [28] was 4.95%, the viability, T/C [29] was 3.57% and the viability, T/C [30] was 2.94%. The viability, T/C [31] was 7.2%, the viability, T/C [32] was 6.13% and the viability, T/C [33] was 3.88%. The viability, T/C [34] was 2.23%, the viability, T/C [35] was 2.98% and the viability, T/C [36] was 1.91%.

In the case of NC1c2ccccc2OC12CCN(c1cnc3c(N4CCCc5ncccc54)n[nH]c3n1)CC2 (stereo unspecified) + C#Cc1c(F)ccc2cc(O)cc(-c3ncc4c(N5CC6CCC(C5)N6)nc(OCC56CCCN5CC(F)C6)nc4c3F)c12, the IC50 (second compound 0.0316 µM) is reported as under 31.6 nM, the IC50 (second compound 0.1 µM) is reported as under 31.6 nM and the IC50 (second compound 0.316 µM) is reported as under 31.6 nM. It also gave an IC50 (second compound 1 µM) of under 31.6 nM, an IC50 (second compound 3.16 µM) of under 31.6 nM and an IC50 (second compound 10 µM) of under 31.6 nM. For the same molecule, the viability, T/C [1] was 26.7%, the viability, T/C [2] was 19.3% and the viability, T/C [3] was 14.6%. For the same molecule, the viability, T/C [4] was 13.3%, the viability, T/C [5] was 10.4% and the viability, T/C [6] was 10.1%. The viability, T/C [7] was 21%, the viability, T/C [8] was 14.3% and the viability, T/C [9] was 10.1%. The viability, T/C [10] was 8.88%, the viability, T/C [11] was 7.88% and the viability, T/C [12] was 6.09%. The viability, T/C [13] was 13.9%, the viability, T/C [14] was 9.75% and the viability, T/C [15] was 8.65%. For the same molecule, the viability, T/C [16] was 4.96%, the viability, T/C [17] was 3.75% and the viability, T/C [18] was 2.92%. For the same molecule, the viability, T/C [19] was 9.24%, the viability, T/C [20] was 6.71% and the viability, T/C [21] was 4%. It also gave a viability, T/C [22] of 3.17%, a viability, T/C [23] of 2.53% and a viability, T/C [24] of 2.43%. The viability, T/C [25] was 6.2%, the viability, T/C [26] was 3.13% and the viability, T/C [27] was 2.43%. The viability, T/C [28] was 1.79%, the viability, T/C [29] was 2.13% and the viability, T/C [30] was 1.85%. The viability, T/C [31] was 3.6%, the viability, T/C [32] was 2.14% and the viability, T/C [33] was 1.74%. It also gave a viability, T/C [34] of 1.65%, a viability, T/C [35] of 1.73% and a viability, T/C [36] of 1.28%.
